Here are results for 17 compounds from patent US9145415B2, “Nitrogen-containing heterocyclic compound or salt thereof” (FUJIFILM Corporation, priority 2012, dated 2015).

In test [1] the target is T1, human FLT3 protein (FLT3 (WT)) (Homo sapiens, UniProt P36888).
T1 construct: human FLT3 protein (intracellular region, 564 to 993 aa); GST; purchased Carna Biosciences; host or cells: baculovirus expression system
T1 sequence (P36888 564-993): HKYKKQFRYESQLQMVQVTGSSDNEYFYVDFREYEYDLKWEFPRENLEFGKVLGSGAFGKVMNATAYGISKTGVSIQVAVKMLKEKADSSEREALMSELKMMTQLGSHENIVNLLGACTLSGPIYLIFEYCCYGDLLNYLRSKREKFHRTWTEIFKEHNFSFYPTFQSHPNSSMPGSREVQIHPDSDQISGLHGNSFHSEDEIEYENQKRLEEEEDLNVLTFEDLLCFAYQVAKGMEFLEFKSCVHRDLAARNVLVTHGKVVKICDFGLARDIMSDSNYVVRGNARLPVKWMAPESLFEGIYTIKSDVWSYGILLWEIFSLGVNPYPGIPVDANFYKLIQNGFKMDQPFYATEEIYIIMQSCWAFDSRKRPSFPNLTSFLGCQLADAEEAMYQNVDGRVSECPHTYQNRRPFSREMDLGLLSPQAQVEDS
Nature of the test: FLT3 inhibition test (FLT3 enzyme inhibition, time-resolved fluorescence of substrate peptide phosphorylation). It is filed as biochemical. Conditions: GST-fused human FLT3 (564 to 993 aa), ATP 50 μM; read-out: FLT3 (WT) enzyme inhibition activity. Summed up:
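Substrate peptide phosphorylation detected by time-resolved fluorescence after a 30 min kinase reaction at 25° C with 50 μM ATP (final). Beforehand, compound and FLT3 (WT, 1.2 μg) stood 15 min at 25° C in HEPES buffer pH 7.5 containing MgCl2, NaCl, BSA and DTT.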

Test [2] relates to MV4-11 cells. As to the kind of experiment: Leukemia cell proliferation inhibition test (ATPlite), MV4-11. It is filed as cell-based. Conditions: Homo sapiens, MV4-11, 72 h, MV4-11, 72 hours culture, ATPlite; GI50 per method; read-out: MV4-11 cell proliferation inhibition effect. Summed up:
(§1)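 72 h proliferation, 37° C/5% CO2; 10,000 cells/well, RPMI/10% FBS; ATPlite luminescence (RLU); 0.1% DMSO taken as 0% inhibition; GI50 via sigmoid fit, n=2.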
(In general: In ATP-based viability assays light output follows the ATP content of the culture.)

In test [3] the test system is Molm-13 cells. As to the kind of experiment: Leukemia cell proliferation inhibition test (ATPlite), Molm-13. In kind it is cell-based. The conditions noted are these: Homo sapiens, MOLM-13, 72 h, Molm-13, 72 hours culture, ATPlite; GI50 per method; read-out: MOLM13 cell proliferation inhibition effect. Summed up:
as §1

Structures are written as SMILES.

With `CNc1nc(Nc2ccc(C#N)cc2)ncc1C#C[C@@H]1CCC[C@H](NC(=O)[C@H](C)N(C)C(=O)/C=C/CN(C)C)C1` [Compound 15-5, (E)-N—((S)-1-(((1S,3R)-3-((2-((4-Cyanophenyl)amino)-4-(methylamino)pyrimidin-5-yl)ethynyl)cyclohexyl)amino)-1-oxopropan-2-yl)-4-(dimethylamino)-N-methyl-2-butenamide], the IC50 in test [1], in test [2] and in test [3] was below 10 nM in each case.
Consider `CNc1nc(Nc2cccc(F)c2)ncc1C#C[C@@H]1CCC[C@H](NC(=O)[C@H](C)N(C)C(=O)/C=C/CN(C)C)C1` [Compound 15-6], for which the IC50 in test [1], in test [2] and in test [3] was below 10 nM each time.
For the compound `C[C@@H](C(=O)N[C@H]1C[C@@H](C#Cc2cnc(Nc3cccc(F)c3)nc2NC2CC2)C1)N(C)C(=O)/C=C/CN(C)C` [Compound 15-7], the IC50 in test [1], in test [2] and in test [3] was below 10 nM in each case.
`CN(C)C/C=C/C(=O)N1CCC[C@H]1C(=O)N[C@H]1C[C@@H](C#Cc2cnc(Nc3cccc(F)c3)nc2NC2CC2)C1` [Compound 15-11]: the IC50 in test [1], in test [2] and in test [3] was below 10 nM each time.
With `CN(C)C/C=C/C(=O)N1CCC[C@H]1C(=O)N[C@H]1C[C@@H](C#Cc2cnc(Nc3ccc(C#N)cc3)nc2NC2CC2)C1` [Compound 15-12], the IC50 in test [1], in test [2] and in test [3] was below 10 nM each time.
As to `C[C@@H](C(=O)N[C@H]1C[C@@H](C#Cc2cnc(Nc3cccc(F)c3)nc2NCCCF)C1)N(C)C(=O)/C=C/CN(C)C` [Compound 15-13, (E)-4-(Dimethylamino)-N—((S)-1-(((1S,3R)-3-((2-((3-fluorophenyl)amino)-4-((3-fluoropropyl)amino)pyrimidin-5-yl)ethynyl)cyclobutyl)amino)-1-oxopropan-2-yl)-N-methyl-2-butenamide], the IC50 in test [1], in test [2] and in test [3] was below 10 nM throughout.
As to `C[C@@H](C(=O)N[C@H]1C[C@@H](C#Cc2cnc(Nc3ccc(C#N)cc3)nc2NCCCF)C1)N(C)C(=O)/C=C/CN(C)C` [Compound 15-14, (E)-N—((S)-1-(((1S,3R)-3-((2-((4-Cyanophenyl)amino)-4-((3-fluoropropyl)amino)pyrimidin-5-yl)ethynyl)cyclobutyl)amino)-1-oxopropan-2-yl)-4-(dimethylamino)-N-methyl-2-butenamide], the IC50 in test [1], in test [2] and in test [3] was below 10 nM in each case.
Turning to `COCCCNc1nc(Nc2cccc(F)c2)ncc1C#C[C@H]1C[C@@H](NC(=O)[C@H](C)N(C)C(=O)/C=C/CN(C)C)C1` [Compound 15-15, (E)-4-(Dimethylamino)-N—((S)-1-(((1S,3R)-3-((2-((3-fluorophenyl)amino)-4-((3-methoxypropyl)amino)pyrimidin-5-yl)ethynyl)cyclobutyl)amino)-1-oxopropan-2-yl)-N-methyl-2-butenamide], the IC50 in test [1], in test [2] and in test [3] was below 10 nM each time.
Turning to `COCCCNc1nc(Nc2ccc(C#N)cc2)ncc1C#C[C@H]1C[C@@H](NC(=O)[C@H](C)N(C)C(=O)/C=C/CN(C)C)C1` [Compound 15-16, (E)-N—((S)-1-(((1S,3R)-3-((2-((4-Cyanophenyl)amino)-4-((3-methoxypropyl)amino)pyrimidin-5-yl)ethynyl)cyclobutyl)amino)-1-oxopropan-2-yl)-4-(dimethylamino)-N-methyl-2-butenamide], the IC50 in test [1], in test [2] and in test [3] was below 10 nM each time.
On to `CCCNc1nc(Nc2ccc(C(N)=O)cc2)ncc1-c1cccc(CCNC(=O)CNC(=O)/C=C/CN(C)C)c1` [Compound 16-1, (E)-4-((5-(3-(2-(2-(4-(dimethylamino)-2-butenamido)actamido)ethyl)phenyl)-4-(propylamino)pyrimidin-2-yl)amino)benzamide], for which the IC50 in test [1] was below 10 nM; in test [2], 10 to 100 nM; in test [3] it was 100 to 1000 nM.
In the same order, the values of `CCCNc1nc(Nc2ccc(C(N)=O)cc2)ncc1-c1ccc(CNC(=O)CNC(=O)/C=C/CN(C)C)cc1` [Compound 16-2] are below 10 nM, 10 to 100 nM and 100 to 1000 nM.
For `CCCNc1nc(Nc2ccc(C(N)=O)cc2)ncc1-c1ccc(CCNC(=O)CNC(=O)/C=C/CN(C)C)cc1` [Compound 16-3], the IC50 in test [1] is below 10 nM; in test [2], 100 to 1000 nM; in test [3] it was 100 to 1000 nM.
As to `CCCNc1nc(Nc2cccc(F)c2)ncc1-c1cc(CCNC(=O)[C@H](C)N(C)C(=O)/C=C/CN(C)C)no1` [Compound 17-1, (S,E)-4-(dimethylamino)-N-(1-((2-(5-(2-((3-fluorophenyl)amino)-4-(propylamino)pyrimidin-5-yl)isoxazol-3-yl)ethyl)amino)-1-oxopropan-2-yl)-N-methyl-2-butenamide], the IC50 in test [1], in test [2] and in test [3] was below 10 nM throughout.
On to `CCCNc1nc(Nc2cccc(F)c2)ncc1-c1cn(CCNC(=O)[C@H](C)N(C)C(=O)/C=C/CN(C)C)nn1` [Compound 17-2, (S,E)-4-(dimethylamino)-N-(1-((2-(4-(2-((3-fluorophenyl)amino)-4-(propylamino)pyrimidin-5-yl)-1H-1,2,3-triazol-1-yl)ethyl)amino)-1-oxopropan-2-yl)-N-methyl-2-butenamide], for which the IC50 in test [1], in test [2] and in test [3] was below 10 nM each time.
Consider `CCCNc1nc(Nc2cccc(F)c2)ncc1-c1cc(CCNC(=O)[C@H](C)N(C)C(=O)/C=C/CN(C)C)on1` [Compound 17-3, (S,E)-4-(dimethylamino)-N-(1-((2-(3-(2-((3-fluorophenyl)amino)-4-(propylamino)pyrimidin-5-yl)isoxazol-5-yl)ethyl)amino)-1-oxopropan-2-yl)-N-methyl-2-butenamide], for which the IC50 in test [1] is below 10 nM; in test [2], 10 to 100 nM; in test [3] it was 10 to 100 nM.
As to `CCCNc1cc(Nc2ccc(C#N)cc2)ncc1C#CCCCNC(=O)[C@H](C)N(C)C(=O)/C=C/CN(C)C` [Compound 18-1, (S,E)-N-(1-((5-(6-((4-cyanophenyl)amino)-4-(propylamino)pyridin-3-yl)-4-pentyn-1-yl)amino)-1-oxopropan-2-yl)-4-(dimethylamino)-N-methyl-2-butenamide], the IC50 in test [1] was below 10 nM; in test [2] it was 10 to 100 nM; in test [3], 10 to 100 nM.
With `CCCNc1cc(Nc2cccc(F)c2)ncc1C(=O)Nc1cccc(NC(=O)[C@H](C)N(C)C(=O)/C=C/CN(C)C)c1` [Compound 18-2, (S,E)-N-(3-(2-(4-(dimethylamino)-N-methyl-2-butenamido)propanamido)phenyl)-6-((3-fluorophenyl)amino)-4-(propylamino)nicotinamide], the results for the IC50 in test [1], in test [2] and in test [3] were below 10 nM, below 10 nM and 10 to 100 nM, respectively.
